Results published in patent US20260218197A1, “EXTRACELLULAR VESICLE SECRETION REDUCING AGENT FOR REDUCING EXTRACELLULAR VESICLE SECRETION, AND USE OF THE SAME” (THEORIA SCIENCE INC., priority 2020, published 2026).

Key:
[1] = test system: MDA-MB-231_Luc_D3H2LN cell line; test: Mice implanted with breast cancer metastatic cell line; format: in vivo; details: 40 mg/kg intraperitoneal injection every day from Day 7, vs non-administration group (PBS)
Description: As a breast cancer metastatic cell line, an MDA-MB-231_Luc_D3H2LN cell line (hereafter referred to as D3H2LN) was used. […] Specifically, the amounts of secreted EVs in the parent cell line and the D3H2LN were measured by the NTA analysis in the same manner as in Example A1, and also, expression of PSAT1 in the parent cell line and the D3H2LN were measured by Western blotting.
Immunodeficient mice C. B-17 scid mice (female, 6-week old) were used as mice. The D3H2LN was suspended in PBS to prepare a cell suspension of 1×10^6 cells/100 μL. Then, on the 0th day (Day 0), 100 μL of the cell suspension was subcutaneously implanted in the mammary gland of each mouse by injection. Then, on the 7th day (Day7), the D3H2LN cells had engrafted, and to mice of an inhibitor administration group (n=6), an NCT-503 solution (solvent: PBS) was administered by intraperitoneal injection every day at 40 mg/kg of body weight. To mice of a non-administration group (n=6, Vehicle), the same amount of PBS was administered every day instead of the NCT-503. For each of the mice in both the administration group and the non-administration group, the tumor volume in the primary lesion (mammary gland) was measured every week using an IVIS-Spectrum (Summit Pharmaceuticals International Corporation). Specifically, the tumor volume was calculated as per the mathematical expression using the longest diameter and the shortest diameter (shortest diameter×shortest diameter×longest diameter×0.5). Also, the body weight of each mouse was measured every day to determine the toxicity. On the 35th day (Day 35), the mice were sacrificed and the mammary gland as the primary lesion and the lungs as the metastatic lesion were excised from each mouse, after which the weight of the primary lesion was measured.

[2] = test system: colorectal cancer cells HCT116; test: Amount of secreted EVs by the NTA method; format: cell-based, human; details: HCT116, 2.5 μmol/L, 48 hours, serine-deficient medium, compared with NC (DMSO)
Description: (§1) The cultured cancer cells were washed with phosphate buffered saline (PBS), and the medium was replaced with advanced RPMI or advanced DMEM containing the above-described antibiotic-antimycotic agent and 2 mmol/L L-glutamine (Gibco). The adjusted culture solution after the replacement was centrifuged at 2,000×g for 10 minutes to remove the cells, and the supernatant obtained was filtered through a 0.22 μm filter (Millipore). The resulting filtrate was centrifuged at 110,000×g for 70 minutes, whereby pellets containing concentrated EVs were obtained. The pellets were washed with 11 mL of PBS, further ultracentrifuged at 110,000×g for 70 minutes, and collected again.
(§2) The secreted EVs were collected and then suspended in PBS. […] An EV concentration was calculated as particles/cells in the culture solution, whereby a net EV secretion rate was obtained. […]
(§3) In a 6-well plate, 2 mL of the cancer cell suspension was seeded at 1.0×10^5 cells/well and incubated for 24 hours. […] 48 hours after the replacement, total RNA was extracted, and the expression of the gene of interest was measured by qPCR.
(§4) Colorectal cancer cells HCT116 and lung cancer cells A549 were each transfected with miR-891b. […] Then, according to the ExoScreen method described above, the amounts of the secreted EVs were measured by measuring the signal intensities. […]

[3] = test system: lung cancer cells A549; test: Amount of secreted EVs by the NTA method; format: cell-based, human; details: A549, 2.5 μmol/L, 48 hours, serine-deficient medium, compared with NC (DMSO)
Description: as §1, §2, §3, §4

SMILES: Cc1cc(C)nc(NC(=S)N2CCN(Cc3ccc(C(F)(F)F)cc3)CC2)c1 [NCT-503]
- tumor volume of the primary lesion (mammary gland) ([1]; Day 21 and Day 35): significantly reduced
- metastatic lesions in the lungs (HE-stained) ([1]; Day 35): fewer metastatic lesions
- tumor weight of the primary lesion (mammary gland) ([1]; Day 35): significantly reduced
- amount of EVs in the media (NTA, relative to negative control = 1) [2]: smaller
- amount of EVs in the media (NTA, relative to negative control = 1) [3]: smaller
